The target in the assay is Epidermal growth factor receptor (Homo sapiens, UniProt P00533). The experiment in a line: Inhibition Assay.
Chain of Epidermal growth factor receptor (P00533 whole entry): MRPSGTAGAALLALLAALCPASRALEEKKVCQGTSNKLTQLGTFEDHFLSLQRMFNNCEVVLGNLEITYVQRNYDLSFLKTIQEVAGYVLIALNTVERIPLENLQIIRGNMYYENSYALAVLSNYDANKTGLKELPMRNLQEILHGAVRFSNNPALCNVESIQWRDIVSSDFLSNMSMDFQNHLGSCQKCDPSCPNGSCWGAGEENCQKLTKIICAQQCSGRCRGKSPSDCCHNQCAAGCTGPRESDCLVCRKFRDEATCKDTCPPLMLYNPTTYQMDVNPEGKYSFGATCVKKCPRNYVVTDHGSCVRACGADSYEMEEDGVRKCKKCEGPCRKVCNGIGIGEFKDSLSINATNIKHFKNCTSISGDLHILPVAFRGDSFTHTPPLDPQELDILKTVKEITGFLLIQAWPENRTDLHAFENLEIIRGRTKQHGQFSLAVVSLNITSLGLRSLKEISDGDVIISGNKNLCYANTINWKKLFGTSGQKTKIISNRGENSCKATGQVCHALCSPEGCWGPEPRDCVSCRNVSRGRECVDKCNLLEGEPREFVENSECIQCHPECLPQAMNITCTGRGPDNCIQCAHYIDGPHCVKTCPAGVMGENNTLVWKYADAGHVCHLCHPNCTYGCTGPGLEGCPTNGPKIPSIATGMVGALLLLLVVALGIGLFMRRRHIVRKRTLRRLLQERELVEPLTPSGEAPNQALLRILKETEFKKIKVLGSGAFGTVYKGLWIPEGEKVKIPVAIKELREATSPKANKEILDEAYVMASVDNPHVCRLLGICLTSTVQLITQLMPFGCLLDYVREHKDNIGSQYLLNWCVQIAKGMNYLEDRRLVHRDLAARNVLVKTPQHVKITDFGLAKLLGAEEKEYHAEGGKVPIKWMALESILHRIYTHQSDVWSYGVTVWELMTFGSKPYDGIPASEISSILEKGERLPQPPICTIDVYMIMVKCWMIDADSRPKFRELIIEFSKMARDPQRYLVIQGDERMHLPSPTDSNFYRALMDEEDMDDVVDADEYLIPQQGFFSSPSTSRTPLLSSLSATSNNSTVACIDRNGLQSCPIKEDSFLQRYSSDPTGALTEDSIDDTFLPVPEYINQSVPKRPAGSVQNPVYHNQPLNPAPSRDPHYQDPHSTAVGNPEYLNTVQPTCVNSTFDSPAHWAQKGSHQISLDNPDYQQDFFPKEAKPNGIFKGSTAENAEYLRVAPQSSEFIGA

Experimental: The concentration of DMSO after addition of the compound prepared in the above examples of the present invention (i.e., the compound to be tested) was 2 vol %.The working concentrations of each component in 10 μL wild-type EGER kinase reaction system were: 10 μM ATP, 0.8 ng/μL wild-type EGFR kinase, 2 μM Tyr04 substrate (Invitrogen, PV3193). The concentration of DMSO after addition of the compound to be tested was 2 vol %.10 mM drug stock solution was dissolved at room temperature and diluted to a final concentration of 4-0.002 μM with 8 vol % DMSO solution. […] Then 2.5 μl of ATP was added to initiate the reaction. Wherein, ATP was replaced by the reaction buffer in C1 well, no drug was added to C2 well, and the phosphorylated substrate was added to C3 well according to the instructions. The mixture was allowed to react at 25° C. in a shaker in dark for 60 min, 5 μL of Development Reagent B (invitrogen, diluted with TR-FRET dilution buffer) was added and allowed to react at room temperature in the shaker for 60 minutes.

As for `C=CC(=O)Nc1cc(Nc2nc(-c3cnn(C)c3)c3c(C)c[nH]c3n2)c(OC)cc1N1CCC(N(C)C)CC1` [US9890168, Compound 14], the IC50 is greater than 1 µM.

Take `C=CC(=O)Nc1cc(Nc2nc(-c3cnn(C)c3)c3cc[nH]c3n2)c(OC)cc1OCCN(C)C` [US9890168, Compound 10]: the IC50 is 0.578 µM.

As usually defined, the IC50 is the midpoint of a concentration-inhibition curve.

Values taken from BindingDB's records for patent US9890168 (Shanghai Haiyan Pharmaceutical Technology, 2018).
